The record followed here is publication PMC9855970, “Cysteine Biosynthesis in Campylobacter jejuni: Substrate Specificity of CysM and the Dualism of Sulfide” (Biomolecules, 2022).

This test addresses T1, CysM (Cj0912) (Campylobacter jejuni, UniProt P71128).
T1 sequence (P71128 1-299): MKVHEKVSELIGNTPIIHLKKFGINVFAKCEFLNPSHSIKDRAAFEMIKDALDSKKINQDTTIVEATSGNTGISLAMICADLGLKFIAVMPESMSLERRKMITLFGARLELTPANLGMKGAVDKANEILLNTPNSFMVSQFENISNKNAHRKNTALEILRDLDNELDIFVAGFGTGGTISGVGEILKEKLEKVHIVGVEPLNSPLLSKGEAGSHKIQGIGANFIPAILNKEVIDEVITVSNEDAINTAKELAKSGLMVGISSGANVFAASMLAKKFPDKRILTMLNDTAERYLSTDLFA
In words: UV-Vis absorbance at […] nm of purified enzyme. The class given is binding. The following applies: 100 mM Tris-HCl pH 7.4, 50 mM NaCl; co-purified, covalent internal Schiff base with lysine.

As to `Cc1ncc(COP(=O)(O)O)c(C=O)c1O` [PLP, pyridoxal 5′-phosphate], the “UV-Vis absorbance at 412 nm of purified enzyme” value is recorded as “Cj0912 purified with the PLP cofactor in situ”.
